Experimental data from patent US9790169B2, “IDO inhibitors” (BRISTOL-MYERS SQUIBB COMPANY, priority 2015, dated 2017).

Biological target: human IDO1 (Homo sapiens, UniProt P14902)
Experiment: Assessment of human IDO-1 inhibitory activity in HEK cells (human IDO1/HEK293 cells, kynurenine read-out with Ehrlich reagent, absorbance 490 nm)
Format: cell-based
Parameters: expressed in transfected cells
Conditions: HEK Human IDO-1 cellular assay
Experimental: Exemplary compounds were tested for inhibition of IDO activity.
Assessment of Human IDO-1 Inhibitory Activity in HEK Cells
HEK293 cells were transfected with a pCDNA-based mammalian expression vector harboring human IDO1 cDNA (NM 002164.2) by electroporation. They were cultured in medium (DMEM with 10% FBS) containing 1 mg/ml G418 for two weeks. Clones of HEK293 cells that stably expressed human IDO1 protein were selected and expanded for IDO inhibition assay.
The human IDO1/HEK293 cells were seeded at 10,000 cells per 50 μL per well with RPMI/phenol red free media contains 10% FBS in a 384-well black wall clear bottom tissue culture plate (Matrix Technologies LLC) 100 nL of certain concentration of compound was then added to each well using ECHO liquid handling systems. The cells were incubated for 20 hours in 37° C. incubator with 5% CO2.
The compound treatments were stopped by adding trichloroacetic acid (Sigma-Aldrich) to a final concentration at 0.2%. The cell plate was further incubated at 50° C. for 30 minute. The equal volume supernatant (20 μL) and 0.2% (w/v) Ehrlich reagent (4-dimethylaminobenzaldehyde, Sigma-Aldrich) in glacial acetic acid were mixed in a new clear bottom 384-well plate. This plate was then incubated at room temperature for 30 minute. The absorbance at 490 nm was measured on Envision plate reader.
Compound IC50 values were calculated using the counts of 500 nM of a reference standard treatment as one hundred percent inhibition, and counts of no compound but DMSO treatment as zero percent inhibition.

Chain of human IDO1 (P14902 whole entry): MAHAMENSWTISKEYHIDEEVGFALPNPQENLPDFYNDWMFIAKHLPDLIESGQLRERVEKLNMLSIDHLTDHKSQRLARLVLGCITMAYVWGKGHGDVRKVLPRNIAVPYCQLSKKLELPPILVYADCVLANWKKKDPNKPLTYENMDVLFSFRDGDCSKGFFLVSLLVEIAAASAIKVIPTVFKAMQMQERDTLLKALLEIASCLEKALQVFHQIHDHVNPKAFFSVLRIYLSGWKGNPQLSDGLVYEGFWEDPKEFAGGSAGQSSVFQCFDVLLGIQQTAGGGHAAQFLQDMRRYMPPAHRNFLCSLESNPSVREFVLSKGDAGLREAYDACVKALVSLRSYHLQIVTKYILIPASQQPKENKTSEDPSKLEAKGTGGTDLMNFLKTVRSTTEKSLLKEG

Structure (SMILES) | IC50
CCC(CC(=O)O)c1ccc(N(CC2CC2)C2CCOCC2)c(Nc2ccc3nc(C)sc3c2)c1 (single isomer, unassigned) [Example 701, 3-(4-((Cyclopropylmethyl)(tetrahydro-2H-pyran-4-yl)amino)-3-((2-methylbenzo[d]thiazol-6-yl)amino)phenyl)pentanoic acid] | < 50 nM
CC(C)(CC(=O)O)c1ccc(N2CCC[C@H]2C(C)(C)O)c(Nc2ccc(Cl)cc2)c1 [Example 808, (S)-3-(3-((4-chlorophenyl)amino)-4-(2-(2-hydroxypropan-2-yl)pyrrolidin-1-yl)phenyl)-3-methylbutanoic acid] | < 50 nM
CCN(c1ccc([C@H](COC)CC(=O)O)cc1NC(=O)Nc1cc(C)no1)C1CCOCC1 (single isomer, unassigned) [Example 440] | > 50 nM
CC(CC(=O)O)c1ccc(N2CCC[C@H]2C(C)(C)O)c(Nc2ccc(F)cc2)c1 (single isomer, unassigned) [Example 798] | > 50 nM
CCc1ccc(Nc2cc([C@H](CC)CC(=O)O)ccc2N(CC)C2CCCCC2)cc1 (single isomer, unassigned) [Example 288] | < 50 nM
CCN(c1ccc([C@@H](COC)CC(=O)O)cc1NC(=O)Nc1cnc(C)nc1)C1CCOCC1 (single isomer, unassigned) [Example 427] | > 50 nM
COCC(CC(=O)O)c1cc(F)c(N(CC(C)C)C2CCCCC2)c(NC(=O)Cc2ccc(C)cc2)c1 (single isomer, unassigned) [Example 1170, 3-(4-(cyclohexyl(isobutyl)amino)-3-fluoro-5-(2-(p-tolyl)acetamido)phenyl)-4-methoxybutanoic acid] | < 50 nM
CC[C@@H](CC(=O)O)c1ccc(N2CCOC[C@@H]2C(C)C)c(NC(=O)Nc2cc(C)on2)c1 (single isomer, unassigned) [Example 77] | > 50 nM
CC[C@H](CC(=O)O)c1ccc(N(CC)C2CCOCC2)c(NC(=O)Nc2ccc3c(c2)CS(=O)(=O)C3)c1 (single isomer, unassigned) [Example 533] | > 50 nM
Cc1ccc(NC(=O)Nc2cc(C(C)CC(=O)O)ccc2N(CC(C)C)C2CCOCC2)cc1 (single isomer, unassigned) [Example 958, 3-(4-(Isobutyl(tetrahydro-2H-pyran-4-yl)amino)-3-(3-(p-tolyl)ureido)phenyl)butanoic acid] | < 50 nM
CCC(CC(=O)O)c1ccc(N(CC)C2CCOCC2)c(NC(=O)Nc2cnc(C)nc2)c1 (single isomer, unassigned) [Example 488 Enantiomer 1, 3-(4-(Ethyl(tetrahydro-2H-pyran-4-yl)amino)-3-(3-(2-methylpyrimidin-5-yl)ureido)phenyl)pentanoic acid] | > 50 nM
CCc1cnc(Nc2cc([C@H](CC)CC(=O)O)ccc2N(CC(C)(C)O)C2CCCCC2)nc1 (single isomer, unassigned) [Example 241] | < 50 nM
CC[C@@H](CC(=O)O)c1ccc(N(CC)C2CCCCC2)c(Nc2ccc(OC(F)F)cc2)c1 (single isomer, unassigned) [Example 284] | < 5 nM

Second part, the compound after the results:

IC50 | Structure (SMILES)
< 5 nM | CC[C@H](CC(=O)O)c1ccc(N(CC)C2CCOCC2)c(NC(=O)Nc2ccc(Cl)cc2F)c1 (single isomer, unassigned) [Example 526]
< 5 nM | CCC(CC(=O)O)c1ccc(N2CCOC[C@H]2C(C)C)c(Nc2ccc3c(c2)OC(F)(F)O3)c1 (single isomer, unassigned) [Example 904]
< 5 nM | COCCC(CC(=O)O)c1ccc(N(CC(C)C)C2CCCCC2)c(NC(=O)Nc2ccc(C)cc2)c1 (racemic) [Example 1003, (+/−)-3-(4-(Cyclohexyl(isobutyl)amino)-3-(3-(p-tolyl)ureido)phenyl)-5-methoxypentanoic acid]
< 5 nM | CCCN(c1ccc([C@@H](CC)CC(=O)O)cc1Nc1ccc2nc(C)sc2c1)C1CCOCC1 (single isomer, unassigned) [Example 537]
< 5 nM | CCC(CC(=O)O)c1cc(F)c(N(CC(C)C)CC(C)C)c(NC(=O)Cc2ccc(C)cc2F)c1 (racemic) [Example 1083]
< 5 nM | CCC(CC(=O)O)c1cc(NC(=O)Nc2cc(C)no2)c(N(CC(C)C)C2CCCCC2)cc1F (single isomer, unassigned) [Example 1114, 3-(4-(Cyclohexyl(isobutyl)amino)-2-fluoro-5-(3-(3-methylisoxazol-5-yl)ureido)phenyl)pentanoic acid]
< 5 nM | CCc1cnc(Nc2cc(C(CC)CC(=O)O)ccc2N(CC(C)C)C2CCCCC2)nc1 (single isomer, unassigned) [Example 302, 3-(4-(cyclohexyl(isobutyl)amino)-3-((5-ethylpyrimidin-2-yl)amino)phenyl)pentanoic acid]
< 5 nM | CCN(c1ccc(C(C)(C)CC(=O)O)cc1Nc1ccc(F)cc1)C1CCC(C)(O)CC1 (stereo not shown) [Example 2, 3-(4-(ethyl(4-hydroxy-4-methylcyclohexyl)amino)-3-((4-fluorophenyl)amino)phenyl)-3-methylbutanoic acid]
< 5 nM | CCC(CC(=O)O)c1cc(NC(=O)Nc2cncnc2)c(N(CC(C)C)C2CCCCC2)cc1F (single isomer, unassigned) [Example 1123, 3-(4-(cyclohexyl(isobutyl)amino)-2-fluoro-5-(3-(pyrimidin-5-yl)ureido)phenyl)pentanoic acid]
< 5 nM | CCC(CC(=O)O)c1ccc(N(CC(C)C)C2CCCCC2)c(Nc2ccc(C#N)cc2)c1 (single isomer, unassigned) [Example 314, 3-(3-((4-cyanophenyl)amino)-4-(cyclohexyl (isobutyl)amino)phenyl) pentanoic acid]
< 5 nM | CCOc1ccc(NC(=O)Nc2cc(C(CC)CC(=O)O)c(F)cc2N(CC(C)C)CC(C)C)c(F)c1 (single isomer, unassigned) [Example 1138, 3-(4-(Diisobutylamino)-5-(3-(4-ethoxy-2-fluorophenyl)ureido)-2-fluorophenyl)pentanoic acid]
< 5 nM | COCC(CC(=O)O)c1cc(F)c(N(CC(C)C)C2CCCCC2)c(NC(=O)Nc2ccc(Cl)cc2)c1 (single isomer, unassigned) [Example 1162, 3-(3-(3-(4-chlorophenyl)ureido)-4-(cyclohexyl(isobutyl)amino)-5-fluorophenyl)-4-methoxybutanoic acid]
< 5 nM | COCC(CC(=O)O)c1cc(F)c(N(CC(C)C)C2CCCCC2)c(NC(=O)Nc2ccc(OC)cc2F)c1 (stereo not shown) [Example 1159, 3-(4-(cyclohexyl(isobutyl)amino)-3-fluoro-5-(3-(2-fluoro-4-methoxyphenyl)ureido)phenyl)-4-methoxybutanoic acid]
< 5 nM | CCOc1ccc(NC(=O)Nc2cc(C(CC)CC(=O)O)c(F)cc2N(CC(C)C)CC(C)C)cc1 (single isomer, unassigned) [Example 1132, 3-(4-(Diisobutylamino)-5-(3-(4-ethoxyphenyl)ureido)-2-fluorophenyl)pentanoic acid]
< 5 nM | COCC(CC(=O)O)c1ccc(N(CC(C)C)C2CCOCC2)c(NC(=O)Nc2ccc(Cl)cc2F)c1 (single isomer, unassigned) [Example 1217, 3-(3-(3-(4-Chloro-2-fluorophenyl)ureido)-4-(isobutyl(tetrahydro-2H-pyran-4-yl)amino)phenyl)-4-methoxybutanoic acid]
